For 20 compounds, IC50 and EC50 results are on record in patent US20220153732A1, “PROTEIN SECRETION INHIBITORS” (KEZAR LIFE SCIENCES, priority 2019, published 2022).

Holding throughout (format): cell-based
The test system of assay [1] is TNFα-FL/Gaussia Luciferase. Put plainly: Dox Induced TNFα-FL-Gluc Assay. As to conditions: 293FRT/TO cells, read-out: 24 hr Dox Inducible TNFaFLGluc 293FRT/TO: Mean IC50. The method in brief: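 Compounds were added in doxycycline-containing DMSO/media to cells plated the previous day and incubated at 37° C under 5% CO2. These cells stably express a TNFα-FL/Gaussia luciferase cDNA whose expression is under T-REx (Dox-inducible) control, selected with Hygromycin and Blasticidin.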

Assay [2] relates to human multiple myeloma cell line NCI-H929. Put plainly: H929 Cell Viability Assay. As to conditions: 48 hr, NCI-H929 cells, Celltiter-Glo, read-out: 48 hr H929 Viability Celltiter-Glo: Mean EC50. The method, then: Plates were incubated at 37° C., 5% CO2 for 48 hours. After 48 hours, Celltiter-Glo® (Promega) was added to each well and luciferase signal was quantified using Tecan Infinite M1000 Pro for cell viability determination.
For chemical structures that include one or more stereoisomers, but are illustrated without indicating stereochemistry, the assay data refers to a mixture of stereoisomers.

Assay [3] has as its system HER3-ss+4aa/Gaussia Luciferase. Put plainly: Dox-Induced Her3-ss-Gluc Assay. The following applies: 293FRT/TO cells, read-out: 24 hr Dox Inducible Her3(ss + 4)Gluc 293FRT/TO: Mean IC50. The method in brief:
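Compounds, diluted in DMSO/media containing doxycycline, were incubated at 37° C., 5% CO2 with cells seeded one day earlier. The cells stably express HER3-ss+4aa/Gaussia luciferase under T-REx control. Where no stereochemistry is shown, data refer to the mixture of stereoisomers.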

For assay [4], the system named is human multiple myeloma cell line U266B1. Put plainly: U266 Cell Viability Assay. The following applies: U-266, 48 hr, U266B1 cells, Celltiter-Glo, read-out: 48 hr U266 Viability Celltiter-Glo: Mean EC50. The method in brief: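 Viability measured by CellTiter-Glo luciferase signal after 48 h compound exposure (37 °C, 5% CO2) of U266B1 cells in 384-well format. Where stereochemistry is not shown, data refer to the stereoisomer mixture.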

The subject of assay [5] is IL-2-FL/Gaussia Luciferase. Nature of the assay: Dox Induced IL2-FL-Gluc Assay. The following applies: 293FRT/TO cells, read-out: 24 hr Dox Inducible IL2FLGIuc 293FRT/TO: Mean IC50. The method in brief: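 Compounds were added together with doxycycline in DMSO/media and incubated at 37° C., 5% CO2. The cells were a stably selected line carrying IL-2-FL/Gaussia luciferase under T-REx inducible control. Structures drawn without stereochemistry were tested as stereoisomer mixtures.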

In assay [6] the test system is PD1-ss+10aa/Gaussia Luciferase. Nature of the assay: Dox-Induced PD1-ss-Gluc Assay. The following applies: 293FRT/TO cells, read-out: 24 hr Dox Inducible PD1ssGluc 293FRT/TO: Mean IC50. The method in brief: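 Compounds, diluted in DMSO/media with doxycycline, were added to cells plated a day earlier and kept at 37° C under 5% CO2. The cells stably express a Gaussia luciferase construct fused to PD1-ss+10aa, induced via the T-REx system. Unassigned stereochemistry means mixture data.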

Setting [7] is: 24 hr doxycycline induction, Gaussia luciferase signal.

Molecules are shown by their SMILES. Where two headings read alike, the source gives them in different places. Bounds are passed on as bounds.

Turning to `CC(C)(COc1ccccn1)c1csc(NC(=O)c2cccn2Cc2ccncc2)n1` [Compound A260], the IC50 in assay [1] (setting [7]) came out at 4.61 µM; in assay [3] (setting [7]), 974 nM; in assay [5] (setting [7]), 950 nM; in assay [6] (setting [7]), 478 nM. In addition, the EC50 in assay [2] was 10.9 µM; in assay [4] it was greater than 25 µM.

Take `O=C(Nc1nc(/C=C/c2ccc(OC(F)(F)F)cn2)cs1)c1cccn1Cc1ccncc1` [Compound A327]: the IC50 came out at 4.49 µM in assay [1] (24 hr, doxycycline-induced); 469 nM in assay [3] (24 hr, doxycycline-induced); 999 nM in assay [5] (24 hr, doxycycline-induced); 16 nM in assay [6] (24 hr, doxycycline-induced). The EC50 was 15.1 µM in assay [2] and greater than 25 µM in assay [4].

Turning to `O=C(Nc1nc(C2Cc3ccccc3O2)cs1)c1cccn1Cc1ccncc1` (stereo not drawn) [Compound A288], the IC50 in assay [1] (setting [7]) came to 3.03 µM; in assay [3] (setting [7]) it was 1260 nM; in assay [5] (setting [7]) it was 1540 nM; in assay [6] (setting [7]), 440 nM. Further, the results for the EC50 in assay [2] and in assay [4] were 23.9 µM and greater than 25 µM, respectively.

Regarding `CC(C)OC(C)(C)c1csc(NC(=O)c2cccn2CCCc2ccncc2F)n1` [Compound A243, 1-(3-(3-fluoropyridin-4-yl)propyl)-N-(4-(2-isopropoxypropan-2-yl)thiazol-2-yl)-1H-pyrrole-2-carboxamide], the IC50 stood at 2.36 µM in assay [1] (setting [7]), 199 nM in assay [3] (setting [7]), 136 nM in assay [5] (setting [7]) and 178 nM in assay [6] (setting [7]). Also, the EC50 in assay [2] was 14.8 µM; in assay [4], greater than 25 µM.

On to `Cc1cnccc1Cn1cccc1C(=O)Nc1nc(C(C)(C)OC(C)C)cs1` [Compound A24, N-(4-(2-isopropoxypropan-2-yl)thiazol-2-yl)-1-((3-methylpyridin-4-yl)methyl)-1H-pyrrole-2-carboxamide], for which the IC50 in assay [1] (setting [7]) was found to be 11.7 µM; in assay [3] (setting [7]) it was 619 nM; in assay [5] (setting [7]), 477 nM; in assay [6] (setting [7]), 303 nM. For the same compound, the EC50 in assay [2] and in assay [4] was greater than 25 µM in each case.

Turning to `O=C(Nc1nc(C#Cc2ccccc2)cs1)c1cccn1Cc1ccncc1` [Compound A132], the IC50 in assay [1] (setting [7]) was determined as 1.21 µM; in assay [3] (setting [7]) it was 417 nM; in assay [5] (setting [7]), 744 nM; in assay [6] (setting [7]), 150 nM. For the same compound, the EC50 came out at 8.85 µM in assay [2] and 9.34 µM in assay [4].

Consider `CC(C)OC(C)(C)c1csc(NC(=O)C2CCCC(=O)N2Cc2ccncc2)n1` (stereo not drawn) [Compound A102, N-(4-(2-isopropoxypropan-2-yl)thiazol-2-yl)-6-oxo-1-(pyridin-4-ylmethyl)piperidine-2-carboxamide], for which the IC50 is greater than 25 µM in assay [1] (setting [7]), greater than 25000 nM in assay [3] (setting [7]), greater than 25000 nM in assay [5] (setting [7]) and greater than 25000 nM in assay [6] (setting [7]). The EC50 in assay [2] and in assay [4] was greater than 25 µM each time.

Consider `CCc1nc(NC(=O)[C@H]2CCCN2Cc2ccncc2)sc1C` [Compound B24], for which the IC50 is greater than 25 µM in assay [1] (24 hr, doxycycline-induced); greater than 25000 nM in assay [3] (24 hr, doxycycline-induced); greater than 25000 nM in assay [5] (24 hr, doxycycline-induced); greater than 25000 nM in assay [6] (24 hr, doxycycline-induced). Further, the EC50 in assay [2] and in assay [4] was greater than 25 µM in each case.

Regarding `O=C(Nc1nc(-c2ccccc2)cs1)c1cccn1Cc1ccncc1` [Compound A216, N-(4-phenylthiazol-2-yl)-1-(pyridin-4-ylmethyl)-1H-pyrrole-2-carboxamide], the IC50 in assay [1] (setting [7]) was found to be 18.8 µM; in assay [3] (setting [7]), 1910 nM; in assay [5] (setting [7]), 1560 nM; in assay [6] (setting [7]), 318 nM. Moreover, the EC50 in assay [2] and in assay [4] was greater than 25 µM throughout.

Take `CC(C)OC(C)(C)c1csc(NC(=O)c2cccn2Cc2c(F)cncc2F)n1` [Compound A256, 1-((3,5-difluoropyridin-4-yl)methyl)-N-(4-(2-isopropoxypropan-2-yl)thiazol-2-yl)-1H-pyrrole-2-carboxamide]: the IC50 in assay [1] (setting [7]) is greater than 25 µM; in assay [3] (setting [7]), 4040 nM; in assay [5] (setting [7]), 2870 nM; in assay [6] (setting [7]), 2150 nM. For the same compound, the EC50 in assay [2] and in assay [4] was greater than 25 µM each time.

As for `CC(C)OC(C)(C)c1csc(NC(=O)c2cccn2Cc2ccncc2C(F)(F)F)n1` [Compound A214, N-(4-(2-isopropoxypropan-2-yl)thiazol-2-yl)-1-((3-(trifluoromethyl)pyridin-4-yl)methyl)-1H-pyrrole-2-carboxamide], the IC50 in assay [1] (setting [7]) was greater than 25 µM; in assay [3] (setting [7]), 6700 nM; in assay [5] (setting [7]) it was 6450 nM; in assay [6] (setting [7]), 4560 nM. Further, the EC50 in assay [2] and in assay [4] was greater than 25 µM in each case.

Take `O=C(Nc1nc2nccnc2s1)c1cccn1Cc1ccncc1` [Compound A115]: the IC50 was greater than 25 µM in assay [1] (setting [7]), greater than 25000 nM in assay [3] (setting [7]), greater than 25000 nM in assay [5] (setting [7]) and greater than 25000 nM in assay [6] (setting [7]). Moreover, the EC50 in assay [2] and in assay [4] was greater than 25 µM each time.

Consider `CNC(=O)c1ccc(/C=C/c2csc(NC(=O)c3cccn3Cc3ccncc3)n2)cc1` [Compound A239], for which the IC50 in assay [1] (setting [7]) is greater than 25 µM; in assay [3] (setting [7]), greater than 25000 nM; in assay [5] (setting [7]), greater than 25000 nM; in assay [6] (setting [7]) it was 1510 nM. In addition, the concentration for a half-maximal effect (EC50) in assay [2] and in assay [4] was greater than 25 µM throughout.

`O=C(Nc1nc([C@H]2CCC[C@@H](c3ccccc3)C2)cs1)c1cccn1Cc1ccncc1` [Compound A270]: the IC50 in assay [1] (setting [7]) was found to be 1.74 µM; in assay [3] (setting [7]) it was 463 nM; in assay [5] (setting [7]), 599 nM; in assay [6] (setting [7]), 161 nM. The values for the EC50 in assay [2] and in assay [4] were 10.4 µM and greater than 25 µM, respectively.

As to `O=C(Nc1nc(N2CCC(c3ccccc3)C2)cs1)c1cccn1Cc1ccncc1` (stereo not drawn) [Compound A273], the IC50 in assay [1] (setting [7]) is greater than 25 µM; in assay [3] (setting [7]), greater than 25000 nM; in assay [5] (setting [7]), greater than 25000 nM; in assay [6] (setting [7]) it was greater than 25000 nM. The EC50 in assay [2] and in assay [4] was greater than 25 µM throughout.

With `CO[C@@H]1C[C@H](c2csc(NC(=O)c3cccn3Cc3ccncc3)n2)N(c2ccccc2)C1` [Compound A325], the IC50 in assay [1] (24 hr, doxycycline-induced) is 0.206 µM; in assay [3] (24 hr, doxycycline-induced), 46 nM; in assay [5] (24 hr, doxycycline-induced), 58 nM; in assay [6] (24 hr, doxycycline-induced) it was 26 nM. For the same compound, the EC50 was 3.62 µM in assay [2] and greater than 25 µM in assay [4].

Consider `O=C(Nc1nc(C2CC(c3ccccc3)C2)cs1)c1cccn1Cc1ccncc1` (stereo not drawn) [Compound A268], for which the IC50 was 0.821 µM in assay [1] (setting [7]), 129 nM in assay [3] (setting [7]), 291 nM in assay [5] (setting [7]) and 52 nM in assay [6] (setting [7]). For the same compound, the EC50 in assay [2] is 7.29 µM; in assay [4], greater than 25 µM.

`CC(C)OC(C)(C)c1csc(NC(=O)c2cccn2CCCc2ccccc2)n1` [Compound A64, N-(4-(2-isopropoxypropan-2-yl)thiazol-2-yl)-1-(3-phenylpropyl)-1H-pyrrole-2-carboxamide]: the IC50 in assay [1] (setting [7]) was greater than 25 µM; in assay [3] (setting [7]), 3480 nM; in assay [5] (setting [7]) it was 2720 nM; in assay [6] (setting [7]) it was 1730 nM. Besides, the figures for the EC50 in assay [2] and in assay [4] were 23.2 µM and greater than 25 µM, respectively.

Turning to `O=C(Nc1nc(/C=C/c2cccnc2)cs1)c1cccn1Cc1ccncc1` [Compound A165, N-(4-(2-(pyridin-3-yl)vinyl)thiazol-2-yl)-1-(pyridin-4-ylmethyl)-1H-pyrrole-2-carboxamide], the IC50 is greater than 25 µM in assay [1] (setting [7]), 9830 nM in assay [3] (setting [7]), 10800 nM in assay [5] (setting [7]) and 1650 nM in assay [6] (setting [7]). Further, the results for the EC50 in assay [2] and in assay [4] were 11.1 µM and greater than 25 µM, respectively.

Turning to `O=C(Nc1nc(/C=C/c2ccc(OC3CC3)cc2F)cs1)c1cccn1Cc1ccncc1` [Compound A304], the IC50 in assay [1] (24 hr, doxycycline-induced) stood at 0.236 µM; in assay [3] (24 hr, doxycycline-induced), 108 nM; in assay [5] (24 hr, doxycycline-induced), 178 nM; in assay [6] (24 hr, doxycycline-induced), 20 nM. Moreover, the EC50 in assay [2] worked out at 6.27 µM; in assay [4] it was 14.3 µM.
